Measured values as given in US6727232B2, “Nucleoside peptide antibiotics of AA-896” (Wyeth Holdings Corporation, priority 2001, dated 2004).
Where two headings read alike, the source gives them in different places.

Key:
Test in all cases: Broth dilution MIC
Type in all cases: cell-based
E. coli GC 4559 = conditions: Escherichia coli, read-out: Antimicrobial Activity (MIC)
Protocol: (§1) The in vitro antibacterial activity of Example 1 through Example 20 is determined against a spectrum of Gram-positive and Gram-negative bacteria by a standard broth dilution method. Serial dilution of the compounds are made in Mueller-Hinton broth and inoculated with a bacterial suspension. The lowest concentration of compound that inhibited the growth of a bacterial strain after 18 hours of incubation at 35° C. is reported as the minimal inhibitory concentration (MIC) for that strain.

E. faecalis GC 2242 = conditions: Enterococcus faecalis, read-out: Antimicrobial Activity (MIC)
Protocol: as §1

S. marcescens GC 4077 = conditions: Serratia marcescens, read-out: Antimicrobial Activity (MIC)
Protocol: as §1

K. pneumoniae GC 4534 = conditions: Klebsiella pneumoniae, read-out: Antimicrobial Activity (MIC)
Protocol: as §1

E. faecalis GC 4555 = conditions: Enterococcus faecalis, read-out: Antimicrobial Activity (MIC)
Protocol: as §1

E. coli GC 3226 = conditions: Escherichia coli, read-out: Antimicrobial Activity (MIC)
Protocol: as §1

M. morganii GC 4531 = conditions: Morganella morganii, read-out: Antimicrobial Activity (MIC)
Protocol: as §1

CNS GC 4537 = conditions: read-out: Antimicrobial Activity (MIC)
Protocol: as §1

P. aeruginosa GC 2214 = conditions: Pseudomonas aeruginosa, read-out: Antimicrobial Activity (MIC)
Protocol: as §1

S. aureus GC 2216 = conditions: Staphylococcus aureus, read-out: Antimicrobial Activity (MIC)
Protocol: as §1

P. rettgeri GC 4530 = conditions: Providencia rettgeri, read-out: Antimicrobial Activity (MIC)
Protocol: as §1

E. coli GC 2203 = conditions: Escherichia coli, read-out: Antimicrobial Activity (MIC)
Protocol: as §1

CNS GC 4547 = conditions: read-out: Antimicrobial Activity (MIC)
Protocol: as §1

E. coli GC 4560 = conditions: Escherichia coli, GC4560, 18 h, read-out: Antimicrobial Activity (MIC)
Protocol: as §1

CNS GC 4538 = conditions: read-out: Antimicrobial Activity (MIC)
Protocol: as §1

E. cloacae GC 3783 = conditions: Enterobacter cloacae, read-out: Antimicrobial Activity (MIC)
Protocol: as §1

S. aureus GC 4536 = conditions: Staphylococcus aureus, read-out: Antimicrobial Activity (MIC)
Protocol: as §1

E. faecalis GC 842 = conditions: Enterococcus faecalis, read-out: Antimicrobial Activity (MIC)
Protocol: as §1

S. aureus GC 1131 = conditions: Staphylococcus aureus, read-out: Antimicrobial Activity (MIC)
Protocol: as §1

P. aeruginosa GC 4532 = conditions: Pseudomonas aeruginosa, read-out: Antimicrobial Activity (MIC)
Protocol: as §1

[1] = GC4559, E. coli GC 4559, Mueller-Hinton broth, 18 hours at 35° C.
[2] = GC2242, E. faecalis GC 2242, Mueller-Hinton broth, 18 hours at 35° C.
[3] = GC4077, S. marcescens GC 4077, Mueller-Hinton broth, 18 hours at 35° C.
[4] = GC4534, K. pneumoniae GC 4534, Mueller-Hinton broth, 18 hours at 35° C.
[5] = GC4555, E. faecalis GC 4555, Mueller-Hinton broth, 18 hours at 35° C.
[6] = GC3226, E. coli GC 3226, Mueller-Hinton broth, 18 hours at 35° C.
[7] = GC4531, M. morganii GC 4531, Mueller-Hinton broth, 18 hours at 35° C.
[8] = CNS GC 4537, Mueller-Hinton broth, 18 hours at 35° C.
[9] = GC2214, P. aeruginosa GC 2214, Mueller-Hinton broth, 18 hours at 35° C.
[10] = GC2216, S. aureus GC 2216, Mueller-Hinton broth, 18 hours at 35° C.
[11] = GC4530, P. rettgeri GC 4530, Mueller-Hinton broth, 18 hours at 35° C.
[12] = GC2203, E. coli GC 2203, Mueller-Hinton broth, 18 hours at 35° C.
[13] = CNS GC 4547, Mueller-Hinton broth, 18 hours at 35° C.
[14] = CNS GC 4538, Mueller-Hinton broth, 18 hours at 35° C.
[15] = GC3783, E. cloacae GC 3783, Mueller-Hinton broth, 18 hours at 35° C.
[16] = GC4536, S. aureus GC 4536, Mueller-Hinton broth, 18 hours at 35° C.
[17] = GC842, E. faecalis GC 842, Mueller-Hinton broth, 18 hours at 35° C.
[18] = GC1131, S. aureus GC 1131, Mueller-Hinton broth, 18 hours at 35° C.
[19] = GC4532, P. aeruginosa GC 4532, Mueller-Hinton broth, 18 hours at 35° C.

Measured: MIC

CCCCCCCCCCCCN(CCCNC(=O)C(NC(=O)C(NC(=O)NC(C(=O)O)C(C)C)C1CCNC(=N)N1)C(O)C(C)C)C(C(=O)O)[C@@H](OC1O[C@H](CN)[C@H](O)[C@H]1OC)[C@H]1O[C@@H](n2ccc(=O)[nH]c2=O)[C@H](O)[C@@H]1O (stereo partly drawn) [Example 7, 16-((R)-{[(3R,4S,5R)-5-(Aminomethyl)-4-hydroxy-3-methoxytetrahydro-2-furanyl]oxy}{(2S,3S,4R,5R)-5-[2,4-dioxo-3,4-dihydro-1 (2H)-pyrimidinyl]-3,4-dihydroxytetrahydro-2-furanyl}methyl)-15-dodecyl-9-(1-hydroxy-2-methylpropyl)-6-(2-iminohexahydro-4-pyrimidinyl)-2-isopropyl-4,7,10-trioxo-3,5,8,11,15-pentaazaheptadecane-1,17-dioic Acid]
16 µg/mL: E. coli GC 4560
> 32 µg/mL: E. coli GC 4559; [1] | E. faecalis GC 2242; [2] | S. marcescens GC 4077; [3] | K. pneumoniae GC 4534; [4] | E. faecalis GC 4555; [5] | E. coli GC 3226; [6] | M. morganii GC 4531; [7] | CNS GC 4537; [8] | P. aeruginosa GC 2214; [9] | S. aureus GC 2216; [10] | P. rettgeri GC 4530; [11] | E. coli GC 2203; [12] | CNS GC 4547; [13] | CNS GC 4538; [14] | E. cloacae GC 3783; [15] | S. aureus GC 4536; [16] | E. faecalis GC 842; [17] | S. aureus GC 1131; [18] | P. aeruginosa GC 4532; [19]

CO[C@H]1C(O[C@H](C(C(=O)O)N(CCCCCCCCCCCCN2CCOCC2)CCCNC(=O)C(NC(=O)C(NC(=O)NC(C(=O)O)C(C)C)C2CCNC(=N)N2)C(O)C(C)C)[C@H]2O[C@@H](n3ccc(=O)[nH]c3=O)[C@H](O)[C@@H]2O)O[C@H](CN)[C@@H]1O (stereo partly drawn) [Example 8, 16-((R)-{[(3R,4S,5R)-5-(Aminomethyl)-4-hydroxy-3-methoxytetrahydro-2-furanyl]oxy}{(2S,3S,4R,5R)-5-[2,4-dioxo-3,4-dihydro-1 (2H)-pyrimidinyl]-3,4-dihydroxytetrahydro-2-furanyl}methyl)-9-(1-hydroxy-2-methylpropyl)-6-(2-iminohexahydro-4-pyrimidinyl)-2-isopropyl-15-[12-(4-morpholinyl)dodecyl]-4,7,10-trioxo-3,5,8,11,15-pentaazaheptadecane-1,17-dioic Acid]
> 32 µg/mL: E. coli GC 4559; GC4559, 18 h | E. faecalis GC 2242; GC2242, 18 h | S. marcescens GC 4077; GC4077, 18 h | K. pneumoniae GC 4534; GC4534, 18 h | E. faecalis GC 4555; GC4555, 18 h | E. coli GC 3226; GC3226, 18 h | M. morganii GC 4531; GC4531, 18 h | CNS GC 4537; 18 h | P. aeruginosa GC 2214; GC2214, 18 h | S. aureus GC 2216; GC2216, 18 h | P. rettgeri GC 4530; GC4530, 18 h | E. coli GC 2203; GC2203, 18 h | CNS GC 4547; 18 h | E. coli GC 4560 | CNS GC 4538; 18 h | E. cloacae GC 3783; GC3783, 18 h | S. aureus GC 4536; GC4536, 18 h | E. faecalis GC 842; GC842, 18 h | S. aureus GC 1131; GC1131, 18 h | P. aeruginosa GC 4532; GC4532, 18 h

CCCCCN(CCCNC(=O)C(NC(=O)C(NC(=O)NC(C(=O)O)C(C)C)C1CCNC(=N)N1)C(O)C(C)C)C(C(=O)O)[C@@H](OC1O[C@H](CN)[C@H](O)[C@H]1OC)[C@H]1O[C@@H](n2ccc(=O)[nH]c2=O)[C@H](O)[C@@H]1O (stereo partly drawn) [Example 9, 16-((R)-{[(3R,4S,5R)-5-(Aminomethyl)-4-hydroxy-3-methoxytetrahydro-2-furanyl]oxy}{(2S,3S,4R,5R)-5-[2,4-dioxo-3,4-di hydro-1 (2H)-pyrimidinyl]-3,4-dihydroxytetrahydro-2-furanyl}methyl)-9-(1-hydroxy-2-methylpropyl)-6-(2-iminohexahydro-4-pyrimidinyl)-2-isopropyl-4,7,10-trioxo-15-pentyl-3,5,8,11,15-pentaazaheptadecane-1,17-dioic Acid]
> 32 µg/mL: E. coli GC 4559; [1] | E. faecalis GC 2242; [2] | S. marcescens GC 4077; [3] | K. pneumoniae GC 4534; [4] | E. faecalis GC 4555; [5] | E. coli GC 3226; [6] | M. morganii GC 4531; [7] | CNS GC 4537; [8] | P. aeruginosa GC 2214; [9] | S. aureus GC 2216; [10] | P. rettgeri GC 4530; [11] | E. coli GC 2203; [12] | CNS GC 4547; [13] | CNS GC 4538; [14] | E. cloacae GC 3783; [15] | S. aureus GC 4536; [16] | E. faecalis GC 842; [17] | S. aureus GC 1131; [18] | P. aeruginosa GC 4532; [19]
32 µg/mL: E. coli GC 4560

CO[C@H]1C(O[C@H](C(C(=O)O)N(CCCCCCCCCCCC[N+]2(C)CCOCC2)CCCNC(=O)C(NC(=O)C(NC(=O)NC(C(=O)O)C(C)C)C2CCNC(=N)N2)C(O)C(C)C)[C@H]2O[C@@H](n3ccc(=O)[nH]c3=O)[C@H](O)[C@@H]2O)O[C@H](CN)[C@@H]1O (stereo partly drawn) [Example 10, 4-[13-((2R)-2-{[(3R,4S,5R)-5-(Aminomethyl)-4-hydroxy-3-methoxytetrahydro-2-furanyl]oxy}-1-carboxy-2-{(2S,3S,4R,5R)-5-[2,4-dioxo-3,4-dihydro-1 (2H)-pyrimidinyl]-3,4-dihydroxytetrahydro-2-furanyl}ethyl)-26-carboxy-19-(1-hydroxy-2-methylpropyl)-22-(2-iminohexahydro-4-pyrimidinyl) -27-methyl-18,21,24-trioxo-13,17,20,23,25-pentaazaoctacos-1-yl]-4-methylmorpholin-4-ium]
16 µg/mL: E. coli GC 4560
> 32 µg/mL: E. coli GC 4559; [1] | E. faecalis GC 2242; [2] | S. marcescens GC 4077; [3] | K. pneumoniae GC 4534; [4] | E. faecalis GC 4555; [5] | E. coli GC 3226; [6] | M. morganii GC 4531; [7] | CNS GC 4537; [8] | P. aeruginosa GC 2214; [9] | S. aureus GC 2216; [10] | P. rettgeri GC 4530; [11] | E. coli GC 2203; [12] | CNS GC 4547; [13] | CNS GC 4538; [14] | E. cloacae GC 3783; [15] | S. aureus GC 4536; [16] | E. faecalis GC 842; [17] | S. aureus GC 1131; [18] | P. aeruginosa GC 4532; [19]
